# How the values were obtained:
# Cloudman S91 tumors = assay: Growth of Cloudman S91 melanoma tumors; type: in vivo
# [1] = test system: Malme-3M (BRAF V600E) cells; assay: MHC class I cell surface expression, flow cytometry; type: cell-based, human; details: 72 hours
# Procedure: (§1) The goal of this study was to measure the effects of binimetinib on cell surface MHC class I expression in various melanoma cell lines. In this study, eight melanoma cell lines were evaluated: MEL-JUSO (NRAS Q61L mutation), IPC-298 (NRAS Q61L mutation), A375 (BRAF V600E, homozygous mutation), HS936.T (NRAS Q61K mutation and BRAF N581K mutation), MM485 (NRAS Q61R mutation), SK-MEL-2 (NRAS Q61R mutation), MM415 (NRAS Q61L mutation), Malme-3M (BRAF V600E, heterozygous mutation). The cells lines were seeded into flat bottom 96-well tissue culture plates at a density of 5000 cells per well and allowed to adhere overnight. The following day cells were treated with vehicle control (0.25% DMSO) or varying dilutions of Binimetinib (0.7 nM-25000 nM) for 1 hour. Cells were then treated with vehicle control or 100 ng/ml IFNgamma (R&D systems) for 72 hours. Cells were washed, trypsinized, and stained with Alexa Fluor® 647 anti-human HLA-A,B,C antibody (W6/32, eBioscience) and analyzed on a BD FACSCanto II flow cytometer. An IFNg titration and time course were performed for assay optimization. Maximal induction of MHC class I expression was seen ˜100 ng/mL of IFNγ (see, e.g., FIGS. 1 and 2).
# [2] = test system: SKMEL-2 (NRAS Q61R) cells; assay: as above; type: cell-based, human; details: 72 hours
# Procedure: as §1
# MM485 (NRAS Q61R) cells = assay: as above; type: cell-based, human; details: 72 hours
# Procedure: as §1
# [3] = test system: MELJUSO (NRAS Q61L) cells; assay: as above; type: cell-based, human; details: for Maximal Fold Increase in MHC Class I Expression: MELJUSO (NRAS Q61L), 72 hours
# Procedure: as §1
# A375 (BRAF V600E) cells = assay: as above; type: cell-based, human; details: 72 hours
# Procedure: as §1
# [4] = test system: HS936.T (NRAS Q61K, BRAF N581K) cells; assay: as above; type: cell-based, human; details: 72 hours
# Procedure: as §1
# MM415 (NRAS Q61L) cells = assay: as above; type: cell-based, human; details: 72 hours
# Procedure: as §1
# IPC298 (NRAS Q61L) cells = assay: as above; type: cell-based, human; details: 72 hours
# Procedure: as §1
# melanoma cell lines = assay: MHC class I expression across the panel of eight melanoma cell lines; type: cell-based, human
# Procedure: as §1
# [5] = Binimetinib steady state exposure quoted in figure legends; details: total
# RENCA tumors = assay: Growth of RENCA renal carcinoma tumors in retired mice; type: in vivo
# Procedure: 1% CMC/0.5% Tween-80 (CMCT) was prepared by adding 960 mL of distilled water to a 1000 mL Pyrex® glass bottle with a stir bar in the bottom, and was used as the oral vehicle. […] Carboxymethylcellulose (5 g, CMC, low viscosity, Sigma C5678, Batch #033K0008) was added slowly, over one hour. The solution was stirred until the CMC dissolved and the solution was clear. 30 mg/kg MEK162 (Binimetinib, 100% active) was prepared as a white, homogeneous suspension in CMCT. MEK162 was administered in 10 mL/kg and dosed at 30 mg/kg (3.0 mg/mL) by oral gavage. To prepare, dry test compound (90 mg) was weighed and 30 mL CMCT added. Dose suspension was sonicated until a fine suspension was achieved (˜15 min). Final dose suspension was stored at 4° C. during live phase and sonicated to resuspend prior to dose administration. Dose suspension was prepared every 4-5 days or as needed. […] The antibody was administered at 100 μg/animal (100 μL of a 1 mg/mL dose solution) by intraperitoneal injection.
# (§2) Male BALB/c mice from Charles River (Wilmington, Mass.) were obtained at 6-8 weeks of age and housed in groups of 5. Following a two week acclimation period, a suspension of 1×10^5 cells in a volume of 100 μL saline was implanted subcutaneously on the right flank of the animal near the axillary region. Animals were then randomly assigned to treatment groups. Treatment was initiated on day 4 after CT26 tumor cell inoculation to allow for a sufficient treatment window. MEK162 was administered once daily (QD) for 14 consecutive days by oral gavage (PO) at 30 mg/kg and anti-PD1 antibody was administered twice weekly by intraperitoneal injection (IP) (Table 4).
# (§3) The combination was evaluated as concomitant administration or sequential where MEK162 treatment was initiated at the time that tumor resistance from anti-PD1 treatment emerged. For the sequential treatment group, animals were enrolled in MEK162 treatment when tumors reached 350-400 mm^3 after anti-PD1 antibody therapy was initiated.
# (§4) Animals were monitored for tumor growth and body weight 2-3 times per week based on outgrowth kinetics. Tumor diameter was measured with digital calipers, and the tumor volume in mm^3 was calculated by the formula: Volume=((width)^2×length)/2. TGI was calculated on day 15. Animals were removed from study if found moribund or if tumor volume exceeded 1400 mm^3. At that time, tumor tissue was harvested and frozen for later analysis of T-cell clonality by immune sequencing (Adaptive Biotech, San Diego, Calif.).
# Survival defined as morbidity, mortality or tumor size exceeding 1400 mm3. […] Cures: Animals with no palpable tumor at the end of the study were scored as cures. Maximum % Body Weight Loss (% BWL): % BWL=100(1−BWt/BW0); BW0 is group mean body weight at study start and BWt is group mean or median body weight on day where maximal body weight loss is observed. Tx-Related Deaths: Death occurring during live phase specifically due to drug administration and not attributable to other causes (e.g. gavage trauma, tumor-related morbidity, etc.)
# For mice that were injected subcutaneously with RENCA cells, retired female breeders were used (23 weeks old). 200 μg of αPD-1 was administered on days 1, 4, 8 and 11.
# [6] = test system: KRas mutant CT26 syngeneic tumors; assay: Growth of KRas mutant CT26 murine colon syngeneic tumors; type: in vivo; details: for Cures (day 61): animals with no palpable tumor at study end
# Procedure: (§5) 1% CMC/0.5% Tween-80 (CMCT) was prepared by adding 960 mL of distilled water to a 1000 mL Pyrex® glass bottle with a stir bar in the bottom, and was used as the oral vehicle. The water was warmed to 50-60° C. then 5 mL Tween® 80 (polyoxyethylenesorbitan monooleate, Sigma P2287, batch #054K0154) and 15.6 mL benzyl alcohol (Sigma 402834, Batch #00296PK) added. Carboxymethylcellulose (5 g, CMC, low viscosity, Sigma C5678, Batch #033K0008) was added slowly, over one hour. The solution was stirred until the CMC dissolved and the solution was clear. 30 mg/kg MEK162 (Binimetinib, 100% active) was prepared as a white, homogeneous suspension in CMCT. MEK162 was administered in 10 mL/kg and dosed at 30 mg/kg (3.0 mg/mL) by oral gavage. To prepare, dry test compound (90 mg) was weighed and 30 mL CMCT added. Dose suspension was sonicated until a fine suspension was achieved (˜15 min). Final dose suspension was stored at 4° C. during live phase and sonicated to resuspend prior to dose administration. Dose suspension was prepared every 4-5 days or as needed. 100 μg αPD-1 RMP1-14, Rat IgG2a isotype (BioXCell cat.no. BP0146, lot #5792×2/1015)−7.12 mg/mL stock concentration. RMP1-14 was prepared by dilution of 0.843 stock solution with 5.157 mL sterile saline for injection. The antibody was administered at 100 μg/animal (100 μL of a 1 mg/mL dose solution) by intraperitoneal injection.
# as §2, §3
# as §4, with “TGI was calculated on day 15.” left out, “Calif.). Food, water, temperature and humidity were according to Pharmacology Testing Facility performance standards (SOP's) which are in accordance with the 1996 Guide for the Care and Use of Laboratory Animals (NRC) and AAALAC-International.” for “Calif.).”
# The murine CT26 cell line (a.k.a. Colon 26 or Colon Tumor #26) was developed in 1975 by exposing BALB/c mice to N-nitroso-N-methylurethane-(NNMU) (Corbett et al., 1975). The undifferentiated colon carcinoma cell line with fibroblast morphology was isolated from BALB/c mice. Extensive genomics, immune phenotyping and therapeutic background are available on this cell line (information summarized from Bhadury et al., 2013, Castle et al., 2014). The cell line is reported to harbor a KRas G12D mutation and the in-house cell line was sequenced and found to match the reported mutation (BGI, Cambridge, Mass.). Literature reports expression of MHC class I but not II and a mutational load of 1688 non-synonymous point mutations; 154 are both in expressed genes and in peptides predicted to bind MHC. […]
# B16F10 tumors = assay: Growth of B16F10 melanoma tumors; type: in vivo
# Procedure: [The procedure below names another cell line; the source lists this cell line under the same test.] as §5, §2, §3
# as §4, with “Calif.). […]” for “Calif.).”
# The mean values for tumor volume and body weight by study day for each experimental group were plotted including error bars for the standard error of the mean. % Tumor Growth Inhibition (% TGI): % TGI=100(1−Wt/Wc); Wt is the mean tumor volume of the treated group on day X; We is the mean tumor volume of controls on day X, where X is the last day that the control group is available in its entirety. […] Cures: Animals with no palpable tumor at the end of the study were scored as cures. […]
compound,measurement,setting,value
"Cn1cnc2c(F)c(Nc3ccc(Br)cc3F)c(C(=O)NOCCO)cc21 [Binimetinib, 6-(4-bromo-2-fluorophenylamino)-7-fluoro-3-methyl-3H-benzoimidazole-5-carboxylic acid (2-hydroxyethoxy)-amide]",Cures (day 44),Cloudman S91 tumors,0/10
same,Deaths,Cloudman S91 tumors,0/10
same,% TGI (day 8),"Cloudman S91 tumors; DBA/2 mice, binimetinib 30 mg/kg, anti-PD-1 100 μg",−17%
same,Max % BWL,Cloudman S91 tumors; vehicle 12.4,4.8%
same,Median Survival,Cloudman S91 tumors; vehicle 13,11
same,Maximal Fold Increase in MHC Class I Expression,[1]; +IFNg 100 ng/ml,1.5 fold
same,Maximal Fold Increase in MHC Class I Expression,[1]; −IFNg,0 fold
same,Maximal Fold Increase in MHC Class I Expression,[2]; +IFNg 100 ng/ml,1.5 fold
same,Maximal Fold Increase in MHC Class I Expression,[2]; −IFNg,2 fold
same,Maximal Fold Increase in MHC Class I Expression,MM485 (NRAS Q61R) cells; +IFNg 100 ng/ml,2 fold
same,Maximal Fold Increase in MHC Class I Expression,MM485 (NRAS Q61R) cells; −IFNg,2 fold
same,increase in MHC class I expression,"[3]; MELJUSO (NRAS Q61L) cells, binimetinib alone, FIG. 5A",2.5 fold
same,enhancement of IFNγ-induced MHC class I expression,"[3]; MELJUSO (NRAS Q61L) cells, in the presence of 100 ng/mL IFNg",4-5 fold
same,Maximal Fold Increase in MHC Class I Expression,[3]; +IFNg 100 ng/ml,4 fold
same,Maximal Fold Increase in MHC Class I Expression,[3]; −IFNg,3 fold
same,Maximal Fold Increase in MHC Class I Expression,A375 (BRAF V600E) cells; +IFNg 100 ng/ml,4 fold
same,Maximal Fold Increase in MHC Class I Expression,A375 (BRAF V600E) cells; −IFNg,2 fold
same,Maximal Fold Increase in MHC Class I Expression,[4]; +IFNg 100 ng/ml,2 fold
same,Maximal Fold Increase in MHC Class I Expression,[4]; −IFNg,1.5 fold
same,Maximal Fold Increase in MHC Class I Expression,MM415 (NRAS Q61L) cells; +IFNg 100 ng/ml,2 fold
same,Maximal Fold Increase in MHC Class I Expression,MM415 (NRAS Q61L) cells; −IFNg,0 fold
same,Maximal Fold Increase in MHC Class I Expression,IPC298 (NRAS Q61L) cells; +IFNg 100 ng/ml,3 fold
same,Maximal Fold Increase in MHC Class I Expression,IPC298 (NRAS Q61L) cells; −IFNg,2 fold
same,melanoma cell lines with increased MHC class I cell surface expression,"melanoma cell lines; binimetinib alone, eight melanoma cell lines",6 of 8
same,fold increase in MHC class I cell surface expression,"melanoma cell lines; binimetinib alone, in 6 of 8 melanoma cell lines",1.5-3 fold
same,fold increase of IFNg-induced MHC class I,"melanoma cell lines; with IFNg, all tested cell lines",1.5-4 fold
same,Trough (day 15),[5],310 nM
same,Cures (day 43),RENCA tumors; retired mice,0/12
same,% TGI (day 18),"RENCA tumors; retired mice (23 weeks of age), binimetinib 30 mg/kg, αPD-1 200 μg days 1, 4, 8 and 11",25%
same,Deaths,"RENCA tumors; retired mice, vehicle 9/12",10/12
same,Maximum % BWL,"RENCA tumors; retired mice, vehicle 15.1",23.3%
same,Median Survival,"RENCA tumors; retired mice, vehicle 21",24
same,Deaths,[6]; BALB/c mice,0/10
same,% TGI (Day 13),"[6]; BALB/c mice, MEK162 30 mg/kg PO QD x14, anti-PD1 100 μg IP D 1, 4, 8, 11",43%
same,% TGI (Day 13),"[6]; BALB/c mice, MEK162 30 mg/kg PO QD x14, anti-PD1 100 μg IP D 1, 4, 8, 11, 30 mg/kg",43%
same,Max % BWL,"[6]; BALB/c mice, maximum body weight loss",0.6%
same,Median Survival,"[6]; BALB/c mice, vehicle 18 days",26 days
same,Cures (day 61),[6],0/10
same,Cures (day 61),[6]; listed as MEK162,no cures
same,Cures (day 61),B16F10 tumors; B16F10 tumors,0/10
same,Deaths,B16F10 tumors; B16F10 tumors,2/10
same,% TGI (day 13),"B16F10 tumors; B16F10 tumors, C57BL/6 mice, binimetinib 30 mg/kg, anti-PD-1 100 μg",59.0%
same,Median Survival,"B16F10 tumors; B16F10 tumors, vehicle 14",19
same,Max % BWL,"B16F10 tumors; mouse, in vivo",0.8%
IFNγ: IFNgamma (R&D systems) used to induce MHC class I expression,IFNγ concentration giving maximal induction of MHC class I expression,"melanoma cell lines; IFNg titration, 72-hour treatment, FIGS. 1 and 2 (A375, SKMEL-2)",~100 ng/mL
